Data from the supplement of paper PMC5908809.

Columns and labels:
[1] = system: normal NK cells expanded with K562-aAPC; assay: drug sensitivity score (DSS) (DSS units); higher = more sensitive; extreme values may be limits of the assay; conditions: 72 h; IL-2 2.5 ng/mL
Experimental: (§1)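 Drug sensitivity and resistance testing on K562-aAPC-expanded normal NK cells: 5 concentrations (10-fold steps over a 10,000-fold range), 72 h at 37 °C, viability by CellTiter-Glo normalised to DMSO and benzethonium chloride controls; DSS from the fitted curve.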

[2] = system: normal primary NK cells, pool 1 (3 donors), resting (IL-2 0 ng/mL); assay: percent inhibition of viability; higher = more inhibition; conditions: 72 h
[3] = system: normal primary NK cells, pool 1 (3 donors) (IL-2 2.5 ng/mL); assay: as above; conditions: 72 h
KAI3 (IL-2 2.5 ng/mL) [4] = assay: as above; conditions: 72 h
YT (IL-2 2.5 ng/mL) [5] = assay: as above; conditions: 72 h
NKL (IL-2 2.5 ng/mL) [6] = assay: as above; conditions: 72 h
NK-92 (IL-2 2.5 ng/mL) [7] = assay: as above; conditions: 72 h
DERL-7 (IL-2 2.5 ng/mL) [8] = assay: as above; conditions: 72 h
[9] = system: normal primary NK cells, pool 2 (3 donors) (IL-2 2.5 ng/mL); assay: as above; conditions: 72 h
[10] = system: normal primary NK cells, pool 3 (3 donors) (IL-2 2.5 ng/mL); assay: as above; conditions: 72 h
NK-YS (IL-2 2.5 ng/mL) [11] = assay: as above; conditions: 72 h
SNK-6 (IL-2 2.5 ng/mL) [12] = assay: as above; conditions: 72 h
KHYG-1 (IL-2 2.5 ng/mL) [13] = assay: as above; conditions: 72 h
IMC-1 (IL-2 20 ng/mL) [14] = assay: as above; conditions: 72 h
[15] = system: normal NK cells expanded with K562-aAPC; assay: as above; conditions: 72 h, IL-2 2.5 ng/mL
Experimental: as §1

[16] = system: normal primary NK cells, pool 1 (3 donors), resting (IL-2 0 ng/mL); assay: drug sensitivity score (DSS) (DSS units); higher = more sensitive; extreme values may be limits of the assay; conditions: 72 h
[17] = system: normal primary NK cells, pool 1 (3 donors) (IL-2 2.5 ng/mL); assay: as above; conditions: 72 h
KAI3 (IL-2 2.5 ng/mL) [18] = assay: as above; conditions: 72 h
YT (IL-2 2.5 ng/mL) [19] = assay: as above; conditions: 72 h
NKL (IL-2 2.5 ng/mL) [20] = assay: as above; conditions: 72 h
NK-92 (IL-2 2.5 ng/mL) [21] = assay: as above; conditions: 72 h
DERL-7 (IL-2 2.5 ng/mL) [22] = assay: as above; conditions: 72 h
[23] = system: normal primary NK cells, pool 2 (3 donors) (IL-2 2.5 ng/mL); assay: as above; conditions: 72 h
[24] = system: normal primary NK cells, pool 3 (3 donors) (IL-2 2.5 ng/mL); assay: as above; conditions: 72 h
NK-YS (IL-2 2.5 ng/mL) [25] = assay: as above; conditions: 72 h
SNK-6 (IL-2 2.5 ng/mL) [26] = assay: as above; conditions: 72 h
KHYG-1 (IL-2 2.5 ng/mL) [27] = assay: as above; conditions: 72 h
IMC-1 (IL-2 20 ng/mL) [28] = assay: as above; conditions: 72 h

CC1(C)CNc2cc(NC(=O)c3cccnc3NCc3ccncc3)ccc21 [Motesanib] (max concentration tested 10000 nM)
Conditions | drug sensitivity score
DERL-7 (IL-2 2.5 ng/mL) [22] | 0
IMC-1 (IL-2 20 ng/mL) [28] | 0.85
KAI3 (IL-2 2.5 ng/mL) [18] | 1.11
KHYG-1 (IL-2 2.5 ng/mL) [27] | 0
NK-92 (IL-2 2.5 ng/mL) [21] | 3.26
NK-YS (IL-2 2.5 ng/mL) [25] | 0.73
NKL (IL-2 2.5 ng/mL) [20] | 3.62
SNK-6 (IL-2 2.5 ng/mL) [26] | 0
YT (IL-2 2.5 ng/mL) [19] | 0.65
[1] | 0.32
[16] | 0
[17] | 0
[23] | 0
[24] | 0

percent inhibition of viability [%]
Conditions | 1 nM | 10 nM | 100 nM | 1000 nM | 10000 nM
DERL-7 (IL-2 2.5 ng/mL) [8] | 8.61 | 2.19 | 10.7 | -4.45 | -7.84
IMC-1 (IL-2 20 ng/mL) [14] | -10.7 | -4.04 | -2.1 | 5 | 16.6
KAI3 (IL-2 2.5 ng/mL) [4] | -8.29 | -1.63 | -3.65 | 2.07 | 23.2
KHYG-1 (IL-2 2.5 ng/mL) [13] | -8.69 | -5.06 | -3.55 | 8.47 | 9.44
NK-92 (IL-2 2.5 ng/mL) [7] | 5.17 | 2.14 | 10.4 | 20.8 | 17.9
NK-YS (IL-2 2.5 ng/mL) [11] | -4.47 | -3.14 | -5.16 | 6.4 | 15
NKL (IL-2 2.5 ng/mL) [6] | -8.65 | -10.7 | -6.54 | 20 | 30.4
SNK-6 (IL-2 2.5 ng/mL) [12] | -15.2 | -22.6 | -22.4 | -32.4 | -29.5
YT (IL-2 2.5 ng/mL) [5] | -3.76 | -2.12 | -1.24 | 6.34 | 14.4
[2] | 4.22 | 16.2 | 15.4 | 16.6 | 11.9
[3] | -3.57 | 3.71 | 11 | 2.82 | -3.82
[9] | -7.61 | 1.62 | 3.62 | 1.34 | 2.65
[10] | -2.89 | 5.36 | 3.67 | 3.63 | 9.45
[15] | -5.87 | -5.96 | -6.1 | 8.26 | 11.9

C=C1C[C@@H]2[C@H](CC[C@]3(C)C(=O)CC[C@@H]23)[C@@]2(C)C=CC(=O)C=C12 [Exemestane] (max concentration tested 10000 nM)
Conditions | drug sensitivity score
DERL-7 (IL-2 2.5 ng/mL) [22] | 2.16
IMC-1 (IL-2 20 ng/mL) [28] | 0.35
KAI3 (IL-2 2.5 ng/mL) [18] | 2.96
KHYG-1 (IL-2 2.5 ng/mL) [27] | 2.88
NK-92 (IL-2 2.5 ng/mL) [21] | 3.74
NK-YS (IL-2 2.5 ng/mL) [25] | 0.88
NKL (IL-2 2.5 ng/mL) [20] | 0.48
SNK-6 (IL-2 2.5 ng/mL) [26] | 5.29
YT (IL-2 2.5 ng/mL) [19] | 0
[1] | 3.07
[16] | 4.06
[17] | 1.99
[23] | 2.8
[24] | 1.49

percent inhibition of viability [%]
Conditions | 1 nM | 10 nM | 100 nM | 1000 nM | 10000 nM
DERL-7 (IL-2 2.5 ng/mL) [8] | -0.04 | 2.07 | -0.5 | 8.21 | 26.2
IMC-1 (IL-2 20 ng/mL) [14] | -4.22 | 2.93 | 0.3 | 7.31 | 12.9
KAI3 (IL-2 2.5 ng/mL) [4] | 0.1 | 9.66 | 6.63 | 5.02 | 42
KHYG-1 (IL-2 2.5 ng/mL) [13] | -6.37 | 13.7 | -2.18 | 12.3 | 29.8
NK-92 (IL-2 2.5 ng/mL) [7] | -2.32 | 9.27 | 5.72 | 8.66 | 44.8
NK-YS (IL-2 2.5 ng/mL) [11] | -2.57 | 3.99 | 3.16 | 2.81 | 18.9
NKL (IL-2 2.5 ng/mL) [6] | -3.13 | 9.66 | -3.12 | 3.19 | 14.4
SNK-6 (IL-2 2.5 ng/mL) [12] | -1.73 | 3.81 | 3.19 | 27.1 | 40.9
YT (IL-2 2.5 ng/mL) [5] | -3.57 | 11.7 | -3.54 | 1.89 | 7.92
[2] | 3.47 | -11.3 | -6.56 | -1.56 | 75.8
[3] | -3.16 | -4.6 | 2.49 | -8.32 | 47.6
[9] | -7.91 | -3.9 | 6.14 | 2.28 | 47.6
[10] | -5.22 | -9.04 | 7.22 | 1.19 | 30.5
[15] | -3.29 | -0.41 | 3.42 | 12.7 | 35.6
